{"source": "patent US20190017067A1", "about": "“[…] PLANTS HAVING MODIFIED 5-ENOLPYRUVYLSHIKIMATE-3-PHOSPHATE SYNTHASE GENE REGULATION” (Regents of the University of Minnesota, priority 2016, published 2019)", "type_in_all_cases": "in vivo, cassava (Manihot esculenta)", "key": {"[1]": {"test_system": "cassava plants transgenic for H064 (DFP promoter driving the TIPA EPSPS sequence)", "test": "Greenhouse glyphosate challenge, visual damage score", "details": "four independent lines, assay as for FIG. 6 (50 mg active ingredient per plant; 1=no damage, 7=plant death)", "method": "(§1) Plants transgenic for 2×35S and native EPSPS promoter expression cassettes were established in the greenhouse following procedures described elsewhere (Taylor et al., 2012 Tropical Plant Biology, 5: 127-139; and Chauhan et al., 2015 Plant Cell Tissue and Organ Culture 121: 591-603). Glyphosate 5.4 was prepared in a solution containing Surface surfactant and applied to leaves of 4-5 week old plants. Glyphosate was applied at a rate of 50 mg active ingredient per plant in a dropwise manner to the youngest 1-2 fully expanded leaves. Plants were grown on the greenhouse bench under conditions described elsewhere (Taylor et al., 2012 Tropical Plant Biology, 5: 127-139; and Chauhan et al., 2015 Plant Cell Tissue and Organ Culture 121: 591-603). Three times per week plants were scored visually on a 1-7 scale for damaged caused by the glyphosate application, where 1=no damage and 7=death.\n(§2) To test the suitability of the two best promoter candidates for driving EPSPS expression, the RB1 and DFP promoters were used to drive expression of TIPA gene models (as shown in FIG. 12) transformed into cassava as described for the other gene models in Example 2. Independent lines were challenged with glyphosate as described for the other gene models in Example 6."}, "[2]": {"test_system": "cassava plants transgenic for H063 (RB1 promoter driving the TIPA EPSPS sequence)", "test": "Greenhouse glyphosate challenge, visual damage score", "details": "two independent lines, assay as for FIG. 6 (50 mg active ingredient per plant; 1=no damage, 7=plant death)", "method": "as §1, §2"}, "[3]": {"test_system": "cassava plants transgenic for H014 (double 35S promoter driving the TIPI EPSPS sequence)", "test": "Greenhouse glyphosate challenge, visual damage score", "details": "50 mg active ingredient per plant applied dropwise to leaves of 4-5 week old plants, scored three times weekly, 1=no damage, 7=plant death", "method": "as §1"}, "[4]": {"test_system": "cassava plants transgenic for H013 (EPSPS promoter driving the TIPI (T102I/P106I) EPSPS sequence)", "test": "Greenhouse glyphosate challenge, visual damage score", "details": "50 mg active ingredient per plant applied dropwise to leaves of 4-5 week old plants, scored three times weekly, 1=no damage, 7=plant death", "method": "as §1"}, "[5]": {"test_system": "cassava plants transgenic for H009 (EPSPS promoter driving the GAAT (G101A/A192T) EPSPS sequence)", "test": "Greenhouse glyphosate challenge, visual damage score", "details": "50 mg active ingredient per plant applied dropwise to leaves of 4-5 week old plants, scored three times weekly, 1=no damage, 7=plant death", "method": "as §1"}, "[6]": {"test_system": "cassava plants transgenic for H010 (double 35S promoter driving the GAAT EPSPS sequence)", "test": "Greenhouse glyphosate challenge, visual damage score", "details": "50 mg active ingredient per plant applied dropwise to leaves of 4-5 week old plants, scored three times weekly, 1=no damage, 7=plant death", "method": "as §1"}, "[7]": {"test_system": "shoots of transgenic events expressing high levels of the T102I/P106A (TIPA) enzyme", "test": "In vitro rooting test on glyphosate-containing media", "details": "media containing 0.05 mM glyphosate; compared to events expressing the gene variant at lower levels; p=0.00", "from_the_text": "Gene models are shown in FIG. 2, and indicated as follows: H001, WT EPSPS driven by the TME7 EPSPS promoter; H002, T102I/P106A EPSPS driven by the TME7 EPSPS promoter; H003, WT EPSPS driven by the 2×35s promoter; H004, T102I/P106A EPSPS driven by the 2×35s promoter.\n(§3) Plantlets were regenerated from five independent transformation events with each gene model vector. Apical stem cuttings approximately 1.5 cm in length were excised from in vitro shoot cultures of transgenic plant lines and cultured on Murashige and Skoog basal media supplemented with 0.05 mM glyphosate. A total of five Petri dishes were established per transgenic event with three plantlets cultured in each dish.\n(§4) Plants were monitored for a period of three weeks. The number of roots formed, length of roots, shoot vigor, and overall plant health were recorded at weekly intervals."}, "[8]": {"test_system": "WT non-transgenic cassava plant (susceptible control)", "test": "Greenhouse glyphosate challenge, phenotype", "details": "50 mg active ingredient per plant, 21 days after application (FIG. 7)", "method": "as §1"}, "[9]": {"test_system": "cassava plants edited with the H056 vector (double 35s promoter driving the TIPA enzyme)", "test": "Greenhouse glyphosate challenge of gene-edited plants", "details": "H056 edited event; 50 mg active ingredient per plant; assay as for FIG. 6; compared with H004 event", "method": "as §1\nVectors containing gene editing reagents described in Example 8 were introduced into cassava callus via Agrobacterium transformation (for example, SEQ ID NOs: 11-14). The vectors were designed to repair the EPSPS promoter excision event either by HR or NHEJ from a standard T-DNA (H055; SEQ ID NO: 11), by HR only from a standard T-DNA (H056; SEQ ID NO: 12), or by HR only from a geminivirus replicon (H060; SEQ ID NO: 14). […]"}, "[10]": {"test_system": "non-transgenic cassava stem cuttings", "test": "In vitro rooting test on glyphosate-containing media", "details": "glyphosate added to the medium at 0.05 mM", "method": "Experiments were conducted to access the effects of glyphosate on in vitro rooting by culturing non transgenic shoots on media containing different concentrations of glyphosate ranging from 0.001 mM to 1.0 mM.\nas §3, §4"}}, "note": "“Also recorded” adds a separate entry of the source.", "data": [{"molecule": "O=C(O)CNCP(=O)(O)O", "note": "[glyphosate]", "values": [{"measurement": "average damage to the shoots, scale of 1-7", "setting": "[1]", "result": "around 4"}, {"measurement": "average damage to the shoots, scale of 1-7", "setting": "[2]", "result": "3-4"}, {"measurement": "average damage to the shoots, scale of 1-7", "setting": "[3]", "result": "1-3.5"}, {"measurement": "average damage to the shoots, scale of 1-7", "setting": "[4]", "result": "4-5.5"}, {"measurement": "average damage to the shoots, scale of 1-7", "setting": "[5]", "result": "4-6.5"}, {"measurement": "average damage to the shoots, scale of 1-7", "setting": "[6]", "result": "3-4"}, {"measurement": "number and length of roots formed", "setting": "[7]", "result": "more and longer roots"}, {"measurement": "phenotype after herbicide challenge", "setting": "[8]", "result": "complete killing"}, {"measurement": "glyphosate tolerance of edited plants (damage over time)", "setting": "[9]", "result": "equivalent to the best H004 event recovered; also recorded: equivalent to performance of the best H004"}, {"measurement": "effect on in vitro rooting and shoots", "setting": "[10]", "result": "Inhibited root formation and shoot death"}]}]}
